Patent US4138423A, “N-dithio carbamoyl oximes” (priority 1976, dated 1979)
Converted amounts (≈) assume the structure as drawn.

Assays:
Mexican bean beetle = assay: Mexican Bean Beetle Leaf Spray Test; settings: Epilachna varivestis, read-out: Beetle LD50
Method: (§1) The test procedures were as follows:
The closed dishes were labeled and held at a temperature of 80±5° F. for three days. Although the larvae could easily consume the leaf within 24 to 48 hours, no more food was added.

[1] = peroral toxicity to mammals (rat); settings: in vivo, po, peroral, Table I, read-out: A.O. Rat. LD50
Method: (§2) Certain of these compositions were also evaluated to determine their peroral toxicity to mammals. The animal selected for this experiment was the rat. The test results obtained are expressed in terms of the number of milligrams of compositions per kilogram of weight of the animal required to achieve a mortality rate of 50 percent (LD50).

southern armyworm = assay: Southern Armyworm Leaf Spray Test; settings: Spodoptera eridania, read-out: Armyworm LD50
Method: The thus-prepared stock suspension contained 0.5 percent by weight of compound. The test concentrations in parts per million by weight employed in the tests described hereinbelow were obtained by appropriate dilutions of the stock suspension with water. The test procedures were as follows:
Larvae of the southern armyworm (Prodenia eridania, (Cram.)), reared on Tendergreen bean plants at a temperature of 80±5° F. and a relative humidity of 50±5 percent, constituted the test insects.
Potted Tendergreen bean plants of standard height and age were placed on a revolving turntable and sprayed with 100-110 milliliters of test compound formulation by use of a DeVilbiss spray gun set at 10 psig air pressure. This application, which lasted 25 seconds, was sufficient to wet plants to run-off. As a control, 100-110 milliliters of a water-acetone-emulsifier solution containing no test compound were also sprayed on infested plants. When dry, the paired leaves were separated and each one was placed in a 9 centimeter Petri dish lined with moistened filter paper. Five randomly selected larvae were introduced into each dish and the dishes were closed. The closed dishes were labeled and held at 80-85° F. for three days. Although the larvae could easily consume the whole leaf within twenty-four hours, no more food was added. Larvae which were unable to move the length of the body, even upon stimulation by prodding, were considered dead. Percent mortality was recorded for various concentration levels.
(§3) The test procedures described above were employed in these experiments in order to determine the LD50 (number of parts per million of active ingredients required to achieve fifty percent mortality of the insects tested) for each of the compositions tested.

house flies = assay: Fly Bait Test; settings: Musca domestica, read-out: Fly LD50
Method: The test concentrations in parts per million by weight employed in the tests described hereinbelow were obtained by appropriate dilutions of the stock suspension with water. The test procedures were as follows:
Four to six day old adult house flies (Musca domestica, L.) reared according to the specifications of the Chemical Specialities Manufacturing Association (Blue Book, McNair-Dorland Co., N.Y. 1954; pages 243-244, 261) under controlled conditions of 80±5° F. and 50±5 percent relative humidity, were the test insects. The flies were immobilized by anesthetizing with carbon dioxide and twenty five immobilized individuals,males and females, were transferred to a cage consisting of a standard food strainer about five inches in diameter which was inverted over a wrapping-paper-covered surface. […] Ten milliliters of the test formulation were added to a souffle cup containing a one-inch square of an absorbent cotton pad. This bait cup was introduced and centered on the blotting paper under the food strainer prior to admitting the anesthetized flies. The caged flies were allowed to feed on the bait for twenty four hours, at a temperature of 80±5° F. and the relative humidity of 50±5 percent.
as §3

bean aphid = assay: whole plant or invertebrate; settings: foliar, read-out: Aphid LD50
two-spotted mite = assay: Mite Foliage Spray Test; settings: Tetranychus urticae, foliar, read-out: Mite LD50
Method: as §1
Adults and nymphal stages of the two-spotted mite (Tetranychus urticae Koch), reared on Tendergreen bean plants at 80±5° percent relative humidity, were the test organisms. Infested leaves from a stock culture were placed on the primary leaves of two bean plants six to eight inches in height, growing in a two- and-a-half inch clay pot. 150-200 mites, a sufficient number for testing, transferred from the excised leaves to the fresh plants in a period of twenty four hours. Following the twenty four hour transfer period, the excised leaves were removed from the infested plants. […] The sprayed plants were held at 80±5 percent relative humidity for six days, after which a mortality count of motile forms was made. […] Any individual which was capable of locomotion upon prodding was considered living.

rat = assay: peroral toxicity to mammals (rat); settings: in vivo, po
Method: as §2

[2] = system: cotton, tomatoes, beans and corn; assay: phytotoxicity to crops; settings: compared with N-methyl carbamate compounds

Compound: CSC(C)=NOC(=O)N(C)SSC(C)(C)C [Example I, 1-Methylthioacetaldehyde O-[N-methyl-N-(2-methyl-2-propanethiosulfenyl)carbamoyl]oxime]
- LC50 (Mexican bean beetle): 40 µg/mL (≈ 142 µM)
- LD50 [1]: 143 mg/kg
- LC50 (southern armyworm): 6 µg/mL (≈ 21.2 µM)
- LC50 (house flies): 4 µg/mL (≈ 14.2 µM)

Compound: CSC(C)=NOC(=O)N(C)SSC(C)(C)C [Example II (Table II)]
- LC50 (bean aphid): 1.3 µg/mL (≈ 4.6 µM)
- LC50 (two-spotted mite): > 500 µg/mL

Compound: CSC(C)=NOC(=O)N(C)SSC1CCCCC1 [Example II, 1-Methylthioacetaldehyde O-[N-methyl-N-(cyclohexanethiosulfenyl)carbamoyl]oxime]
- LD50 [1]: 101 mg/kg

Compound: CC(=NOC(=O)N(C)SSC(C)(C)C)SC(C)C [Example III (Table II)]
- LC50 (bean aphid): 9 µg/mL (≈ 29 µM)
- LC50 (two-spotted mite): 125 µg/mL (≈ 403 µM)

Compound: CSC(C)=NOC(=O)N(C)SSc1ccc(Cl)cc1 [Example III, 1-Methylthioacetaldehyde O-[N-methyl-N-(4-chlorophenylthiosulfenyl)carbamoyl]oxime]
- LD50 [1]: 160 mg/kg

Compound: CC(=NOC(=O)N(C)SSC(C)C)SCCC#N [IV]
- LD50 [1]: 14.1 mg/kg

Compound: CSC(C)=NOC(=O)N(C)SSc1ccccc1 [IX, 1-Methylthioacetaldehyde O-[N-methyl-N-(phenylthiosulfenyl)carbamoyl]oxime]
- LD50 [1]: 143 mg/kg

Compound: CNC(=O)ON=C(C)SC [Methomyl, reference compound]
- LC50 (Mexican bean beetle): 70 µg/mL (≈ 432 µM)
- Rat LD50 (rat): 48 mg/kg
- LC50 (two-spotted mite): > 500 µg/mL
- LC50 (southern armyworm): 11 µg/mL (≈ 67.8 µM)
- LC50 (house flies): 4 µg/mL (≈ 24.7 µM)
- phytotoxicity to important economic crops [2]: highly susceptible to phytotoxic injury

Compound: CSC(C)=NOC(=O)N(C)SSc1ccc(C)cc1 [X, 1-Methylthioacetaldehyde O-[N-methyl-N-(4-methylphenylthiosulfenyl)carbamoyl]oxime]
- LD50 [1]: 63.5 mg/kg

Compound: CC(=NOC(=O)N(C)SSC(C)(C)C)SCCC#N [XIII]
- LD50 [1]: 10 mg/kg

Compound: CC(=NOC(=O)N(C)SSC(C)(C)C)SC(C)C [XII]
- LC50 (Mexican bean beetle): 31 µg/mL (≈ 99.8 µM)
- LD50 [1]: 30.8 mg/kg
- LC50 (southern armyworm): 35 µg/mL (≈ 113 µM)
- LC50 (house flies): 42 µg/mL (≈ 135 µM)

Compound: CSC(C)(C)C=NOC(=O)N(C)SSc1ccc(Cl)cc1 [XIV]
- LD50 [1]: 2 mg/kg

Compound: CSC(C)=NOC(=O)N(C)SSc1ccc(C(C)(C)C)cc1 [XI]
- LD50 [1]: 180 mg/kg

Compound: CSC(C)=NOC(=O)N(C)SSC(C)C [XV]
- LD50 [1]: 113 mg/kg
